Consider 1 compound from patent publication US20190374554A1, “USE OF OXYGENATED CHOLESTEROL SULFATES (OCS) TO TREAT INFLAMMATORY SKIN DISEASE AND SKIN LESIONS” (Virginia Commonwealth University, priority 2016, published 2019).

The test system of data set [1] is IMQ-induced psoriasis-like back skin and ear lesions. Put plainly: Imiquimod (IMQ)-induced psoriasis mouse model, skin scoring (erythema, scaling, thickness). Format: in vivo, Balb/C mice. Particulars: mice; intradermal injection into back lesion Days 1 and 4; vs vehicle (FIG. 2). As to the method:
The subjects for the study were 40 male Balb/C mice (18-22 g). […] The backs of all mice were shaved for an area of 1.5 cm×2 cm.
Formulation A was a clear solution of 25 HC3S sodium salt (30 mg/mL) in a solution vehicle (250 mg/mL hydroxypropyl betadex (beta cyclodextrin, 2-hydroxypropyl ether, a partially substituted poly(hydroxypropyl) ether of beta cyclodextrin) and 10 mM sodium phosphate buffer in sterile water). Vehicle was stored at 2-8° C. storage and placed at room temperature for 30 min. prior to mixing with powdered 25HC3S just prior to use. Dissolution of the 25HC3S in Vehicle A was rapid and appeared to be complete upon mixing.
Formulation B was a milky suspension of 25HC3S sodium salt (25 mg/mL) in a suspension vehicle (30 mg/mL polyethylene glycol 3350, 3 mg/mL polysorbate 80, 7.5 mg/mL NaCl, and 10 mM sodium phosphate buffer in sterile water). The 25HC3S was milled using a Fluid Energy Model 00 Jet-O-Mizer™ to approximately a 5 microns average particle size (measured by a Malvern Mastersizer 2000 equipped with a hydro 2000S dispersion cell) prior to addition to the vehicle. […]
Mice were monitored for signs of distress and daily photos of the back lesions were taken. Erythema, scaling, and thickness of the back skin was scored daily on a scale from 0 to 4 by an independent scorer (blind), where 0=none; 1=slight; 2=moderate; 3=marked; and 4=very marked. […]

A further data set has as its system psoriasis plaques. Put plainly: Proof of concept study of single intralesional doses in psoriasis patients, microplaque assay (LPSI). Format: in vivo, human. Particulars: single intralesional dose (3 injections of 100 μL); 14 day scoring period. The source says: The objectives of this study were: • To establish preliminary evidence for the efficacy of intralesionally injected 25HC3S in patients with psoriasis, as assessed by microplaque assay. • To assess the safety of 25HC3S in patients with psoriasis. • Compare evidence for the efficacy of different formulations of intralesionally injected 25HC3S.
• This trial was a double-blind, within-participant, randomized, vehicle and active comparator-controlled, single-dose study. Participants attended a screening visit within 28 days of dosing. A target plaque(s) of psoriasis was selected. • Day 0: each participant was treated with 2 different formulations of study drug, 2 vehicle formulations, one active comparator and one untreated area (6 treatments in total). Each treatment was administered to every participant as an intralesional injection, with the exception of the untreated area. • Participants were required to return for outpatient visits for microplaque assessments at Day 1, Day 2, Day 7 and Day 14. Treatment Formulations: Table 12 lists the formulated drug products and Table 13 lists the amounts injected.
Ten patients with mild to severe psoriasis were enrolled into this clinical trial after screening. […]
The effect of 25HC3S in psoriasis was assessed by the change of LPSI score as compared to vehicle or untreated in this microplaque assay. […]

A short description of data set [2]: Drug solubility / drug loading in solvents and compositions. It is filed as physicochemical.

As to `C[C@H](CCCC(C)(C)O)[C@H]1CC[C@H]2[C@@H]3CC=C4C[C@@H](OS(=O)(=O)[O-])CC[C@]4(C)[C@H]3CC[C@]12C.[Na+]` [Formulation 25HC3S, 5-cholesten-3, 25-diol, 3-sulfate], the “erythema (redness) of the back skin” value in data set [1] is on record as “promotes reduction in erythema”. For the same compound, the “effect on psoriatic plaques based on LPSI score” value in the data set with psoriasis plaques was “exhibited efficacy in psoriatic plaques by reducing LPSI”. The “state of drug in the prepared compositions” value in data set [2] (6 wt % 25HC3S, compositions of Tables 31 and 32) is reported as “all in solution”. The “maximum drug loading achieved” value in data set [2] (Carbopol based creams or gels) stood at 1 wt %. Also, the figures for the drug solubility in data set [2] (in EtOH), in data set [2] (in PEG 400) and in data set [2] (in PG) were around 3 mg/mL, around 130 mg/mL and around 30 mg/mL, respectively.
